Experimental data: the CheMixHub viscosity set
“And” between values parts separate entries of the source, which are not always exact repeats. Equal values may be shown once.

What was measured:
[1] = xn = mol fraction of the nth substance listed

C1CCCC1
viscosity [mPa·s]
Settings | 293.15 K | 303.15 K | 313.15 K
100 kPa | 0.428 | 0.385 | 0.348
101 kPa | – | 0.387 | –
101.3 kPa | – | – | 0.3545

C=CCc1ccc2c(c1)OCO2
Settings | viscosity [mPa·s]
298.15 K, 101 kPa | 2.29

CC(=O)OC(C)=O
viscosity [mPa·s]
Settings | 298.15 K | 313.15 K | 323.15 K
101 kPa | 0.842 | 0.693 | –
101.33 kPa | 0.831 | – | 0.611

CC(C)(C)C1CCCCC1
102 kPa
Settings | viscosity [mPa·s]
293.15 K | 1.7
303.15 K | 1.42
313.15 K | 1.21
323.15 K | 1.04

CCC(=O)CC
viscosity
Settings | 298.15 K | 303.15 K | 308.15 K | 313.15 K | 318.15 K
100 kPa | – | 0.428 mPa·s | – | 0.366 mPa·s | –
101 kPa | 0.449 mPa·s and 0.437 mPa·s | – | 0.396 mPa·s and 0.393 mPa·s | 0.376 mPa·s and 0.376 mPa·s | –
101.33 kPa | 0.408 mPa·s | 0.424 mPa·s | 0.373 mPa·s | – | 0.351 mPa·s

CCC(C)CC(C)C (configuration not stated)
100 kPa
Settings | viscosity [mPa·s]
293.15 K | 0.476
298.15 K | 0.455
303.15 K | 0.434
308.15 K | 0.416
313.15 K | 0.4

CCN(CC)C(C)=O
Settings | viscosity [mPa·s]
298.16 K, 101 kPa | 1.226

CN1CCCC1=O
viscosity
Settings | 293.15 K | 298 K | 303 K | 303.15 K | 313 K | 313.15 K | 318 K | 323 K | 323.15 K
100 kPa | 1.853 mPa·s | – | – | – | – | – | – | – | –
101 kPa | 1.91 mPa·s | 1.61 mPa·s | 1.5 mPa·s | 1.623 mPa·s and 1.521 mPa·s | 1.29 mPa·s | 1.401 mPa·s and 1.3 mPa·s | 1.22 mPa·s | 1.12 mPa·s | 1.231 mPa·s

C[n+]1ccn(CCCCCn2cc[n+](C)c2)c1.O=S(=O)([N-]S(=O)(=O)C(F)(F)F)C(F)(F)F.O=S(=O)([N-]S(=O)(=O)C(F)(F)F)C(F)(F)F
101 kPa
Settings | viscosity
293.15 K | 1125 mPa·s and 1123 mPa·s
303.15 K | 554.9 mPa·s and 556.8 mPa·s
313.15 K | 313.4 mPa·s and 310.4 mPa·s
323.15 K | 192.3 mPa·s and 188.8 mPa·s

NCCO
viscosity
Settings | 293.15 K | 298.15 K | 303.15 K | 313.15 K | 318.15 K | 323.15 K
101 kPa | 31.3 mPa·s | 18.64 mPa·s | 15.34 mPa·s and 14.05 mPa·s | 9.9 mPa·s and 9.972 mPa·s and 9.95 mPa·s | 8.1 mPa·s | 6.88 mPa·s and 9.44 mPa·s and 7.01 mPa·s
101.3 kPa | – | – | – | 9.702 mPa·s | – | –

NCCO.O=S(=O)([N-]S(=O)(=O)C(F)(F)F)C(F)(F)F.[Li+]
Settings | viscosity [mPa·s]
323.15 K, 101 kPa | 1157

OCc1ccccc1
Settings | viscosity
293.15 K, 100 kPa | 6.421 mPa·s
293.15 K, 101.33 kPa | 6.536 mPa·s
298.15 K, 101 kPa | 4.936 mPa·s and 5.54 mPa·s and 5.737 mPa·s
298.15 K, 101.3 kPa | 5.313 mPa·s
298.15 K, 101.33 kPa | 5.276 mPa·s
303.15 K, 101.3 kPa | 4.609 mPa·s and 4.515 mPa·s
308.15 K, 101 kPa | 3.66 mPa·s and 4.045 mPa·s
308.15 K, 101.3 kPa | 3.877 mPa·s
308.15 K, 101.33 kPa | 3.891 mPa·s
313.15 K, 101 kPa | 3.121 mPa·s and 3.614 mPa·s and 3.51 mPa·s
318.15 K, 101.33 kPa | 2.945 mPa·s
323.15 K, 101 kPa | 2.646 mPa·s and 2.548 mPa·s
323.15 K, 101.33 kPa | 2.591 mPa·s

CC(=O)OC(C)=O + Oc1ccccc1
viscosity [mPa·s], [1], 101.33 kPa
Settings | 298.15 K | 323.15 K
x2 = 0.0899 | 0.922 | 0.666
x2 = 0.1347 | 0.98 | 0.706
x2 = 0.1492 | 1.014 | 0.733
x2 = 0.2953 | 1.267 | 0.896
x2 = 0.3588 | 1.412 | 0.951
x2 = 0.4184 | 1.559 | 1.05
x2 = 0.4673 | 1.706 | 1.1
x2 = 0.4678 | 1.707 | 1.1
x2 = 0.5 | 1.839 | 1.164
x2 = 0.5169 | 1.89 | 1.191
x2 = 0.5846 | 2.069 | 1.275
x2 = 0.6414 | 2.668 | 1.513
x2 = 0.78 | 3.958 | 2.017
x2 = 0.8878 | 5.906 | 2.623

OCc1ccccc1 + c1ccccc1
[1]
Settings | viscosity
293.15 K, 101.32 kPa, x1 = 0.03068 | 0.6725 mPa·s
293.15 K, 101.32 kPa, x1 = 0.04509 | 0.6903 mPa·s
293.15 K, 101.32 kPa, x1 = 0.1059 | 0.7825 mPa·s
293.15 K, 101.32 kPa, x1 = 0.1545 | 0.8652 mPa·s
293.15 K, 101.32 kPa, x1 = 0.1997 | 0.9735 mPa·s
298.15 K, 101.33 kPa, x1 = 0.1 | 0.7 mPa·s
298.15 K, 101.33 kPa, x1 = 0.2 | 0.855 mPa·s and 0.855 mPa·s
298.15 K, 101.33 kPa, x1 = 0.5 | 1.712 mPa·s and 1.712 mPa·s
298.15 K, 101.33 kPa, x1 = 0.8 | 3.267 mPa·s
303.15 K, 101 kPa, x1 = 0.1079 | 0.8732 mPa·s
303.15 K, 101 kPa, x1 = 0.2167 | 1.03 mPa·s
303.15 K, 101 kPa, x1 = 0.3472 | 1.291 mPa·s
303.15 K, 101 kPa, x1 = 0.4657 | 1.601 mPa·s
303.15 K, 101 kPa, x1 = 0.5516 | 1.877 mPa·s
303.15 K, 101 kPa, x1 = 0.6577 | 2.306 mPa·s
303.15 K, 101 kPa, x1 = 0.7244 | 2.653 mPa·s
303.15 K, 101 kPa, x1 = 0.868 | 3.594 mPa·s
303.15 K, 101 kPa, x1 = 0.9178 | 3.983 mPa·s
308.15 K, 101.33 kPa, x1 = 0.1 | 0.597 mPa·s
308.15 K, 101.33 kPa, x1 = 0.2 | 0.714 mPa·s
308.15 K, 101.33 kPa, x1 = 0.5 | 1.379 mPa·s
308.15 K, 101.33 kPa, x1 = 0.8 | 2.433 mPa·s
318.15 K, 101.33 kPa, x1 = 0.1 | 0.526 mPa·s
318.15 K, 101.33 kPa, x1 = 0.2 | 0.617 mPa·s
318.15 K, 101.33 kPa, x1 = 0.5 | 1.139 mPa·s
318.15 K, 101.33 kPa, x1 = 0.8 | 1.904 mPa·s
323.15 K, 101.33 kPa, x1 = 0.1 | 0.493 mPa·s
323.15 K, 101.33 kPa, x1 = 0.2 | 0.578 mPa·s and 0.575 mPa·s
323.15 K, 101.33 kPa, x1 = 0.5 | 1.026 mPa·s and 1.026 mPa·s
323.15 K, 101.33 kPa, x1 = 0.8 | 1.695 mPa·s

c1ccc(-c2ccccc2)cc1 + c1ccccc1
[1], 298.15 K, 101 kPa
Settings | viscosity [mPa·s]
x1 = 0.1006 | 0.7585
x1 = 0.1824 | 0.9014
x1 = 0.3638 | 1.298

O=CNc1ccccc1 + c1ccncc1
[1], 298.15 K, 101 kPa
Settings | viscosity [mPa·s]
x1 = 0.06989 | 1.089
x1 = 0.1339 | 1.335
